What was measured:
[1] = target: Human immunodeficiency virus type 1 reverse transcriptase (Human immunodeficiency virus 1) (UniProt Q72547); experiment: In vitro inhibitory activity of compound against human immunodeficiency virus type 1 (HIV-1) rReverse transcriptase at a concentration of 10 ug/mL.
[2] = target: T1, Human immunodeficiency virus type 1 reverse transcriptase (Human immunodeficiency virus 1, UniProt Q72547); experiment: In vitro inhibitory activity of compound against human immunodeficiency virus type 1 (HIV-1) Reverse transcriptase
T-cell line = experiment: In vitro cytotoxicity in CD4+ human T-cells (c8166), […]; assay type: functional
[3] = target: T1, Human immunodeficiency virus type 1 reverse transcriptase; experiment: In vitro inhibitory activity against human immunodeficiency virus type 1 (HIV-1) reverse transcriptase (RT)
[4] = target: Human immunodeficiency virus type 1 reverse transcriptase (Human immunodeficiency virus 1) (UniProt Q72547); experiment: In vitro inhibitory activity against human immunodeficiency virus type 1 (HIV-1) reverse transcriptase (RT) at a concentration of 10 ug/mL.
[5] = target: Human immunodeficiency virus type 1 reverse transcriptase (Human immunodeficiency virus 1) (UniProt Q72547); experiment: In vitro inhibitory activity of compound against human immunodeficiency virus type 1 (HIV-1) Reverse transcriptase at a concentration of 10 ug/mL.

CCN1C(=O)c2ccccc2N(C)c2nc(Cl)ccc21
inhibition [1]: 76%
IC50 [2]: 3300 nM

Cc1cn([C@H]2C[C@H](N=[N+]=[N-])[C@@H](CO)O2)c(=O)[nH]c1=O [ZIDOVUDINE]
CC50 (T-cell line): 66000 nM
IC50 [3]: 6 nM

Cc1cc2c(cc1C)N(CCN(C)C)c1ncccc1C(=O)N2C
IC50 [3]: > 1000 nM
inhibition [4]: 0%

CCN1c2cc(C(=O)c3ccccc3)ccc2N(C)C(=O)c2cccnc21
IC50 [3]: > 1000 nM
inhibition [4]: 73%

CN1C(=O)c2cccnc2N(CC(=O)OC(C)(C)C)c2ccccc21
IC50 [3]: > 1000 nM
inhibition [4]: 87%

CCN1c2ccccc2N(C)C(=O)c2ccc(F)nc21
IC50 [3]: 2900 nM
inhibition [4]: 84%

CCN1c2ccc(CNC(=O)C(C)(C)C)cc2N(C)C(=O)c2cccnc21
IC50 [3]: > 1000 nM
inhibition [4]: 15%

C#CCN1c2ncccc2C(=O)N(C)c2cccnc21
IC50 [3]: > 1000 nM
inhibition [4]: 94%

CCN1c2ncccc2C(=O)N(C)c2cc(Cl)cnc21
IC50 [3]: > 1000 nM
inhibition [4]: 99%

CCN1C(=O)c2cccnc2N(C)c2ccccc21
IC50 [3]: > 1000 nM
inhibition [4]: 84%

CCN1c2cc(N=[N+]=[N-])ccc2N(C)C(=O)c2cccnc21
IC50 [3]: 140 nM
inhibition [4]: 100%

CCN1c2ccccc2NC(=O)c2cccnc21
IC50 [3]: 380 nM
inhibition [4]: 99%

CN1C(=O)c2cccnc2N(Cc2ccccc2)c2ccccc21
IC50 [3]: 9000 nM
inhibition [4]: 93%

CCN1c2ncccc2C(=O)N(C)c2ccc(Cl)nc21
inhibition [5]: 100%
IC50 [2]: 150 nM

C=CCN1c2ncccc2C(=O)N(C)c2cccnc21
IC50 [3]: 850 nM
inhibition [4]: 99%

CCN1c2nc(C)ccc2C(=O)N(C)c2cccnc21
IC50 [3]: > 1000 nM
inhibition [4]: 65%

CN1C(=O)c2cccnc2N(C(C)(C)C)c2ncccc21
IC50 [3]: 11000 nM
inhibition [4]: 87%

COCCN1C(=O)c2cccnc2Nc2ccccc21
IC50 [3]: > 1000 nM
inhibition [4]: 36%

CCN1c2cc(NC(C)=O)ccc2N(C)C(=O)c2cccnc21
IC50 [3]: > 1000 nM
inhibition [4]: 49%

CCN1c2ncccc2C(=O)N(C)c2cc([N+](=O)[O-])cnc21
IC50 [3]: > 1000 nM
inhibition [4]: 64%

CN(C)CCN1C(=O)c2cccnc2N(C2CC2)c2ncccc21
IC50 [3]: > 1000 nM
inhibition [4]: 34%

CCN1c2ncccc2C(=O)N(C)c2ccc(C)nc21
IC50 [3]: 170 nM
inhibition [4]: 100%

CCN1c2cc([N+](=O)[O-])ccc2N(C)C(=O)c2cc(Br)cnc21
IC50 [3]: 890 nM
inhibition [4]: 95%

CCN1C(=O)c2cccnc2N(CC)c2ccccc21
IC50 [3]: 380 nM
inhibition [4]: 99%

CC(=O)N1c2ncccc2C(=O)N(C)c2cccnc21
IC50 [3]: 15300 nM
inhibition [4]: 73%

CCN1c2ncccc2C(=O)N(C)c2cc(Cl)c([N+](=O)[O-])nc21
inhibition [5]: 98%
IC50 [2]: > 1000 nM
